Measurements: US12708630B2, “Combined therapy of 4′-thio-5-aza-2′-deoxycytidine and Venetoclax” (PINOTBIO, INC., priority 2021, dated 2026)
Entries after “also recorded” stand apart in the source; their conditions may differ. Read-outs that look alike come from different tables or passages of the source.

Tests used:
[1] = system: RRM1 protein, dCTP and dTTP; assay: RRM1 expression and pyrimidine level in cells; type: cell-based
Description: The reduction of dCTP and dTTP, which act as important precursors for cancer cells to replicate DNA, can cause replication stress and generate a strong DNA damage response.

[2] = Human PK simulation / human dose projection; conditions: 16 mg/day human dose
Procedure: The human dose of NTX-301 should be divided by 3 or 4 to adjust the mouse exposure.
The 96 mg/day must be divided by 3 or 4, resulting in 24 to 32 mg/day.
This was a safe and effective dose in mice.
Furthermore, based on the results of the combination with Venetoclax in the mouse model, an effective dose of 0.5 to 1.0 mg/kg was determined, which translates to a human dose of 8 to 16 mg+Venetoclax.

[3] = system: DNMT1 knock-out MV4-11 cells; assay: Target engagement: cytotoxicity in DNMT1 knock-out MV4-11 cell line; type: cell-based; conditions: DNMT1 knock-out (siRNA) MV4-11, concentration-dependent treatment
Description: This confirms that Aza-T-dCyd has potent pharmacological effects through DNMT1 (FIG. 18).

[4] = system: AML cell lines; assay: Cell viability inhibition in AML cell lines; type: cell-based; conditions: various AML cell lines, FIG. 19
Procedure: (§1) The growth-inhibitory activity of Aza-T-dCyd, a DNMT1 inhibitor, was measured in leukemia cell lines to determine its inhibitory effect on cell proliferation.

[5] = system: DNA methylation; assay: DNA demethylation; type: cell-based
Description: Through DNA demethylation caused by Aza-T-dCyd treatment, various tumor suppressor genes and genes required for differentiation induction of AML cells were reactivated, and the reactivated expression patterns of these genes were confirmed by RNA-seq data analysis (FIG. 24).

[6] = Preliminary toxicity experiments (Comet assay, bone marrow); type: in vivo; conditions: mice
Procedure: As a preliminary toxicity assessment of the Aza-T-dCyd compound, preliminary toxicity experiments were conducted to determine the presence of toxicity symptoms (tissue changes) and DNA damage in bone marrow in mice after 2 weeks of systemic administration, and to assess the cellular composition in bone marrow of mice after 4 weeks of systemic administration.

[7] = system: p15 tumor suppressor gene; assay: p15 tumor suppressor gene re-expression (RT-PCR) in MV4-11 cells; type: cell-based; conditions: for p15 mRNA re-expression: MV4-11 cell line
Procedure: Therefore, to determine the re-expression of tumor suppressor genes through epigenetic regulation mechanisms induced by DNMT1 inhibition upon Aza-T-dCyd (NTX-301) treatment, MV4-11 cells, an AML cell line, were treated with Aza-T-dCyd at different concentrations. […] Table 1 below compares the degree of p15 mRNA re-expression after DNMT1 inhibitor (Aza-T-dCyd/Decitabine) treatment in the MV4-11 cell line, an AML cell (fold increase from 0 nM is shown).

[8] = Pharmacokinetic evaluation in Rat; type: in vivo; conditions: for AUC(0-inf) / AUC(0-t) / Cmax / half-life / Tmax: in vivo, Rat; for half-life: read-out: T½ (converted)
Procedure: Aza-T-dCyd was administered orally and intravenously at various concentrations to Mice, Rats and Dogs to determine the PK profile.

[9] = system: MV4-11 AML cells; assay: MV4-11 AML xenograft implanted subcutaneously, combination with venetoclax; type: in vivo, mice; design: anti-cancer effect (tumor volume): dose or concentration left out as unconfirmed
Procedure: After establishing a xenograft systemic AML model in which MV4-11 AML cells were implanted subcutaneously in mice, Aza-T-dCyd alone at 2.0 mpk for 1 cycle (5 days on, 2 days off, 5 days on, 9 days off) was administered (PO) or Aza-T-dCyd 0.5, 1.0 or 2.0 mpk plus venetoclax 50 mpk or 100 mpk administered orally (PO) for 1 cycle (venetoclax on for 5 days, off for 2 days, repeated for 3 weeks). Anti-cancer efficacy was determined in disease models in which azacitidine 5.0 mpk was administered intraperitoneally (IP) alone or in combination with optimal dose of azacitidine (2.5 mpk) and venetoclax 50 mpk or 100 mpk as a control.

[10] = system: leukemia cell lines; assay: Growth-inhibitory activity on leukemia cell lines (GI50); type: cell-based; conditions: leukemia cell lines, 72 hours, range over cell lines; read-out: GI50 values (half maximal growth inhibitory concentrations)
Procedure: as §1
The growth-inhibitory activity of DNMT1 inhibitors, Aza-T-dCyd and Decitabine, was measured on leukemia cell lines to determine their effect on cell proliferation.

[11] = system: H2AX, Chk1, p53; assay: DNA damage response markers; type: cell-based
[12] = system: CEBP/epsilon, CDKN1B; assay: CEBP/epsilon and CDKN1B expression in AML cell lines; type: cell-based
Description: CEBP/epsilon and CDKNIB expression was identified and comparatively analyzed in various AML cell lines to determine the mode of target engagement induced by DNMT1 inhibition upon treatment with Aza-T-dCyd (NTX-301) (FIG. 16).

[13] = system: MDS/AML model; assay: AUC exposure versus efficacy in the MDS/AML model; type: in vivo
[14] = cited from earlier work

With Nc1ncn([C@H]2CC(O)[C@@H](CO)S2)c(=O)n1 (stereo partly drawn) [Aza-T-dCyd, 4′-thio-5-aza-2′-deoxycytidine] the RRM1 protein expression [1] was “inhibited the expression of RRM1 protein”, the “amount of dCTP and dTTP in the cells” value [1] was “decreased the amount of dCTP and dTTP” and the “human AUC converted to the mouse AUC value (factor of 3-4)” value [2] was 150 to 200 ng·h/mL. For the same molecule, the “cytotoxicity in DNMT1 knock-out cell line” value [3] was “decrease in cytotoxicity”, the cell viability inhibition [4] was “excellent cell viability inhibition” and the “overall DNA methylation levels” value [5] was “decrease in overall DNA methylation levels”. The “pattern of DNA demethylation” value [5] was “biased and selective demethylation”, the “cellular composition of the bone marrow” value ([6]; 4 weeks of continuous administration) was “no changes in the various cells that make up the bone marrow” and the “organ damage at necropsy” value ([6]; after two weeks) was “no organ damage”. For the same molecule, the “Comet assay for DNA damage in bone marrow” value ([6]; after two weeks of treatment, versus untreated control) was “no changes in various indicators of DNA damage”, the weight changes ([6]; two-week systemic administration) was “no significant weight changes” and the “p15 mRNA re-expression” value ([7]; 6 nM) was 1.4 ± 0.19 fold increase from 0 nM. The “p15 mRNA re-expression” value ([7]; 20 nM) was 1.7 ± 0.38 fold increase from 0 nM, the “p15 mRNA re-expression” value ([7]; 60 nM) was 2.6 ± 0.89 fold increase from 0 nM and the “p15 mRNA re-expression” value ([7]; 200 nM) was 6.1 ± 0.86 fold increase from 0 nM. For the same molecule, the “p15 upregulation compared with decitabine” value ([7]; MV4-11 cells) was “induced p15 upregulation better than decitabine”, the “expression of p15 tumor suppressor gene (quantitative RT-PCR)” value ([7]; MV4-11 cells, 60 nM and 200 nM) was “significantly increased” and the “p15 mRNA re-expression (RT-PCR)” value ([7]; MV4-11 cells, different concentrations, FIG. 14) was “strong re-expression of p15 mRNA”. It also gave an AUC(0-inf) ([8]; IV 1 mg/kg) of 1900 ng·h/mL, an AUC(0-t) ([8]; IV 1 mg/kg) of 1330 ng·h/mL and a Cmax ([8]; IV 1 mg/kg) of 444 ng/mL. It also gave a half-life ([8]; IV 1 mg/kg) of 5.01 h, an AUC(0-inf) ([8]; PO 0.5 mg/kg) of 303 ng·h/mL and an AUC(0-t) ([8]; PO 0.5 mg/kg) of 190 ng·h/mL. For the same molecule, the Cmax ([8]; PO 0.5 mg/kg) was 33.8 ng/mL, the Tmax ([8]; PO 0.5 mg/kg) was 2 h and the half-life ([8]; PO 0.5 mg/kg) was 5.24 h. For the same molecule, the AUC(0-inf) ([8]; PO 1 mg/kg) was 790 ng·h/mL, the AUC(0-t) ([8]; PO 1 mg/kg) was 459 ng·h/mL and the Cmax ([8]; PO 1 mg/kg) was 81.9 ng/mL. For the same molecule, the Tmax ([8]; PO 1 mg/kg) was 1.17 h, the half-life ([8]; PO 1 mg/kg) was 6.3 h and the AUC(0-inf) ([8]; PO 3 mg/kg) was 2800 ng·h/mL. For the same molecule, the AUC(0-t) ([8]; PO 3 mg/kg) was 2780 ng·h/mL, the Cmax ([8]; PO 3 mg/kg) was 488 ng/mL and the Tmax ([8]; PO 3 mg/kg) was 0.83 h. It also gave a half-life ([8]; PO 3 mg/kg) of 3.45 h, an AUC(0-inf) ([8]; PO 10 mg/kg) of 9240 ng·h/mL and an AUC(0-t) ([8]; PO 10 mg/kg) of 9200 ng·h/mL. It also gave a Cmax ([8]; PO 10 mg/kg) of 1320 ng/mL, a Tmax ([8]; PO 10 mg/kg) of 2 h and a half-life ([8]; PO 10 mg/kg) of 2.95 h. For the same molecule, the oral bioavailability ([8]; rats) was “orally bioavailable”, the “anti-cancer effect (tumor volume)” value ([9]; Aza-T-dCyd 0.5 mpk with venetoclax, FIGS. 30 and 31) was “complete tumor regression” and the “anti-cancer efficacy of monotherapy versus Azacytidine/Venetoclax” value ([9]; Aza-T-dCyd 2.0 mpk alone, FIGS. 28 to 33) was “as effective as the Azacytidine/Venetoclax group; also recorded: anti-cancer efficacy equivalent to or superior to that of Azacytidine/Venetoclax combination”. For the same molecule, the “anti-cancer effect (tumor volume), single agent” value ([9]; administered alone (Aza-T-dCyd 2 mpk), FIGS. 30 and 31, listed as NTX-301) was “sufficiently working; also recorded: sufficiently anti-tumorigenic”, the GI50 [10] was 0.014 to 0.69 µM and the H2AX phosphorylation [11] was “increased H2AX phosphorylation”. The “expression of p53 protein” value [11] was “increased expression of p53 protein”, the “phosphorylation of Chk1” value [11] was “increased phosphorylation of Chk1” and the “CEBP/epsilon and CDKN1B intracellular protein expression” value ([12]; MV4-11, HL-60 and KG-1a cells, 72 hours) was “expression of CEBP/epsilon and CDKN1B was increased”. The “CEBP/epsilon and CDKN1B expression” value ([12]; THP-1 cells, different concentrations) was “increased CEBP/epsilon expression and CDKN1B expression”, the “AUC value at which efficacy is shown” value ([13]; MDS/AML model) was 60 ng·h/mL and the “AUC value of best therapeutic efficacy” value ([13]; MDS/AML model) was 200 to 250 ng·h/mL. For the same molecule, the “AUC of best efficacy relative to the HNSTD” value ([13]; most sensitive species) was “about 25%”, the “AUC of best efficacy relative to the NOAEL value” ([13]; most sensitive species) was “about 50%” and the AUC value ([14]; 16 mg/day dose, NCI's Phase 1 trial) was “about 50 ng*h/mL”. The side effects ([14]; Phase 1a, solid tumors, dose approximately twice that of conventional decitabine) was “no significant side effects were observed”, the disease control rate ([14]; clinical trials, 32 mg/day dose) was “high disease control rate” and the “MTD dose in Phase 1” value ([14]; humans) was 32 mg.
